“Also recorded” adds a separate entry of the source.
How the values were obtained:
Assay type in all cases: cell-based, human
[1] = tested on: iPSC-RPE cells; assay: Immunostaining of the iPSC-RPE monolayer (beta catenin, pERM, ZO1, RPE65, p27); details: for Production of mature RPE cells: conclusion from beta catenin and RPE65 staining; for p27 staining: treated cells vs untreated (untreated: weak p27 in nucleus), higher p27 suggests cell cycle exit; for Beta catenin staining: treated iPSC-RPE cells vs untreated (untreated: beta catenin in cytoplasm)
Excerpt: The mature RPE cells were further developed into functional RPE cell monolayers that function as an intact RPE tissue by continued culture in the RPE-MM with additional small molecules such as primary cilium inducers like PGE2 or aphidicolin. Without being bound by theory, these primary cilium inducers suppress the canonical WNT pathway, induce cell cycle exit in the cells, and induce apical-basal polarization in the RPE monolayer. RPE maturity can alternatively be induced by canonical WNT pathway inhibitors such as IWP2 and endo-IWR1 that also induce cell cycle exit in RPE cells to promote RPE maturation. The cells were cultured in this medium for another 2-3 weeks to obtain mature and functional RPE cell monolayers. Thus, the presently disclosed methods provide mature RPE cells from pluripotent cells that can be consistently reproduced at a large scale for clinical applications.
(§1) For analysis of the mature RPE cells produced from treatment with PGE2, immunostaining of the RPE monolayer was performed to confirm the hexagonal architecture (FIGS. 4A-4C) of tight junctions by ZO1 staining as well as transmission electron microscopy of the iPSC-RPE cells (FIG. 4D).

[2] = tested on: iPSC-derived RPE population; assay: Inclusion of MEK inhibitor in RDM and RPE-MM during RPE differentiation; details: 1 μM in RDM and in RPE-MM (approximately Days 42 through 50)
Protocol: With regard to the methods described in Examples 2 and 3, the inclusion of PD0325901 at a concentration of 1 μM in media for certain windows of time beginning on Day 2 post iPSC plating through the end of the differentiation process, including post-MACS culture, may improve both purity of the RPE population (meaning a decrease in contaminating cells) as well as maturity of the resulting RPE population.

[3] = tested on: iPSC-RPE cells; assay: Transmission electron microscopy of iPSC-RPE cells; details: PGE2-treated vs untreated iPSC-RPE cells
Protocol: as §1

[4] = tested on: iPSC-derived RPE cells; assay: Barrier function: transepithelial electrical resistance (TER) and potential (TEP) of the RPE monolayer
Protocol: To measure the barrier function of the RPE cells generated by the present methods, transepithelial electrical potential (TEP) was measured the ion gradient across the monolayer generated by energy-driven ion pumps that regulate passage across the cells, and transepithelial electrical resistance (TER) measures resistance of substances through the paracellular space mainly through the fine structure of the tight junction structure (FIG. 7A).
Functionality of the mature RPE cells treated with IWP2 or endo-IWR1 was also characterized.
(§2) Next, it was tested whether an increase in the concentration of PGE2 from 50 μM to 100 μM in the RPE-MM+PGE2 medium would improve both purity of the RPE population (i.e., a decrease in contaminating cells) as well as maturity of the resulting RPE population. To determine the maturity and functionality of the 50 μM versus 100 μM PGE2 treated cultures, the barrier function in terms of transepithelial electrical resistance (TER) was measured (FIG. 7F) to compare the resistance of substances through the paracellular space as explained in Example 9. To determine the percentage of pure RPE cells obtained after treatment of the iPSC-derived RPE cultures with 50 μM or 100 μM in the RPE-MM+PGE2 medium, flow cytometry purity assay was performed for RPE-specific markers (FIG. 7G) as described in Example 6.

[5] = tested on: iPSC-derived RPE cultures; assay: Flow cytometry purity assay for RPE-specific markers
Protocol: The flow cytometry purity assay was performed to determine the percentage of RPE cells obtained by a sorting method of the present disclosure. An aliquot of the cell suspension collected from the MACS assay (2×10^6 cells in a 5 mL FACS tube per sample) was centrifuged at 400×g for 3 min. The cell pellet was resuspended in 1 mL of a stain (e.g., Live-Dead Red stain) and incubated in the dark at room temperature for 15 min. After incubation, 2 mL of wash buffer was added and the cells were centrifuged at 400×g for 3 min to remove any unbound stain. The cell pellet was resuspended in fixation buffer and incubated in the dark at room temperature for 15 min. After incubation, 2 mL of wash buffer were added and the cells were centrifuged at 400×g for 3 min and the supernatant was decanted. The cell pellet was resuspended in 2 mL of wash buffer to make a 1×10^6 cells/mL suspension and 200 μL of the cell suspension was transferred to a FACS tube. To each tube, 2 mL of perm buffer was added and cells were centrifuged at 400×g for 3 min. Primary antibodies for the RPE-specific markers were diluted in perm buffer and 100 μL diluted antibody solution was added to each tube. After incubation overnight at 4° C. in the dark, the cells were washed in 2 mL Penn Buffer two times. Secondary antibody solution was added to each of the tubes and cells were incubated at room temperature in the dark for 1-2 hours. […]
as §2, with “To determine the percentage of pure RPE cells obtained after treatment of the iPSC-derived RPE cultures with 50 μM or 100 μM in the RPE-MM+PGE2 medium, flow cytometry purity assay was performed for RPE-specific markers (FIG. 7G) as described in Example 6.” left out

[6] = treated iPSC-RPE cells vs untreated (untreated: low in cytoplasm)
[7] = day 75, 100 μM vs 50 μM PGE2 from day 54 to day 75

Structure (SMILES)	Production of mature RPE cells [1]	p27 staining [1]	Beta catenin staining [1]	RPE65 staining [1, 6]	Purity and maturity of the RPE population [2]	ZO1 staining ([1]; treated and untreated iPSC-RPE cells)	pERM (Ezrin) staining [1, 6]	Apical processes in transmission electron micrographs [3]	Functional response (TER) ([4]; 100 μM vs 50 μM PGE2 in RPE-MM+PGE2 medium, Day 54 to Day 75)	TEP and TER measurements (functionality) ([4]; treated RPE cells versus untreated RPE cells)	Purity and maturity of the RPE population ([5]; PGE2 raised from 50 μM to 100 μM in RPE-MM+PGE2, judged by TER and flow cytometry)	Expression of Best 1 marker (late maturity RPE marker) [5, 7]	Percent expression of Pmel17, Tryp1 and Cralbp (RPE-specific markers) [5, 7]
Cc1ccc2nc(NC(=O)CSc3nc4c(c(=O)n3-c3ccccc3)SCC4)sc2c1 [IWP2, N-(6-Methyl-2-benzothiazolyl)-2-[(3,4,6,7-tetrahydro-4-oxo-3-phenylthieno[3,2-d]pyrimidin-2-yl)thio]-acetamide]	produces mature RPE cells	higher p27 expression in the nucleus	decreased beta catenin; also recorded: beta catenin on cell membrane	increased RPE65; also recorded: high in the cytoplasm									
[Cl-].[Li+] [LiCl]		weak p27 expression in the nucleus	beta catenin in the nucleus	no staining is seen									
O=C(NOC[C@H](O)CO)c1ccc(F)c(F)c1Nc1ccc(I)cc1F [PD0325901, N-[(2R)-2,3-Dihydroxypropoxy]-3,4-difluoro-2-[(2-fluoro-4-iodophenyl)amino]-benzamide]					improve both purity and maturity								
CCCCC[C@H](O)/C=C/[C@H]1[C@H](O)CC(=O)[C@@H]1C/C=C\CCCC(=O)O [PGE2, prostaglandin E2]	produces mature RPE cells		decreased beta catenin; also recorded: at the membrane	increased RPE65; also recorded: high in the cytoplasm of the treated cells		at the tight junctions in the plasma membrane	high in the cytoplasm of the treated cells	more extensive apical processes	progressive increase	increased functionality	promotes both the purity and maturity	much higher	comparable expression

Source: patent US12241083B2, “Macs-based purification of stem cell-derived retinal pigment epithelium” (FUJIFILM Cellular Dynamics, Inc., priority 2015, dated 2025)
